According to patent US20260374766A1, “METHODS FOR TREATING CANCER” (Antares Therapeutics, Inc., priority 2022, published 2026):
Read-outs that look alike come from different tables or passages of the source.

Legend:
[1] = target: T1, p53 Y220C mutant protein (amino acid residues 94-293) (Homo sapiens, UniProt P04637, Y220C); assay: Surface Plasmon Resonance (SPR) assay, Kd_kinetic; type: binding; settings: read-out: SPR P53 Y220C KD kinetic
T1 construct: p53 Y220C mutant protein (amino acid residues 94-293)
Method in brief: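 Temperature held at 16 or 20 °C during Biacore 8K runs. Buffer: 50 mM Tris, pH 7.5, 100 mM NaCl, 1 mM DTT, 0.01% Brij35, 0.05% Tween-20, 1% DMSO.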

[2] = target: T1, p53 Y220C mutant protein (amino acid residues 94-293); assay: Thermal Shift Assay (TSA), dTM; type: binding; settings: for ΔTm at 10 µM: 10 uM compound; for ΔTm at 100 µM: 100 uM compound, read-out: TSA P53 Y220C dTM (100 uM)
Method in brief: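 5 μM protein + 10 μM or 100 μM cpd, 3 h, 20 °C; 20 mM HEPES pH7.4, 100 mM NaCl, 0.01% Pluronic F-127, 1% DMSO, Sypro Orange 400-fold dil. Ramp 30→50 °C, 0.03 °C/s. TM by Boltzmann two-state fit.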

p53 Y220C = p53 Y220C (Homo sapiens, UniProt P04637, Y220C); assay: Luciferase Reporter Assay (Luc), p53 response element, NClH1299 cells with inducible p53 Y220C; type: cell-based; settings: luciferase reporter, NClH1299 inducible p53 Y220C, 6 hour; for AC50: read-out: Luc P53 Y220C AC50
Method in brief: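 Steps: seed 5,000 cells/well; induce mutant p53 with 0.5 ug/mL doxycycline for 24 h; treat with compound 6 h; add equal volume One-Glo, shake 5 min at room temperature; measure luciferase immediately.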

NUGC3 p53 Y220C = assay: Cell Proliferation Assay (CellTiter-Glo, CTG), NUGC3 p53 Y220C; type: cell-based; settings: Homo sapiens, NUGC-3, 120 h, 5 days, CellTiter-Glo
Method in brief: (§1)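 NClH1299 lines stably transduced with Tet-inducible p53 Y220C or R273H, plus NUGC3, were treated with compound for 5 days at 250-500 cells/well. IC50 derived from CellTiter-Glo luminescent signal after 10 min room-temperature incubation.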

H1299 p53 Y220C = assay: Cell Proliferation Assay (CellTiter-Glo, CTG), H1299 p53 Y220C (NClH1299-inducible p53 Y220C); type: cell-based; settings: Homo sapiens, NCI-H1299, 120 h, 5 days, CellTiter-Glo
Method in brief: as §1

H1299 p53 R273H = assay: Cell Proliferation Assay (CellTiter-Glo, CTG), H1299 p53 R273H (NClH1299-inducible p53 R273H); type: cell-based; settings: Homo sapiens, NCI-H1299, 120 h, 5 days, CellTiter-Glo
Method in brief: as §1

[3] = p53 Y220C, read-out: TSA P53 Y220C dTM
[4] = NClH1299-inducible p53 Y220C cells
[5] = NClH1299-inducible p53 R273H cells
[6] = 10 uM tool compound as positive control
[7] = thermal shift, read-out: TSA P53 Y220C dTM (10 uM)

Structure (SMILES) | Kd [1] [nM] | ΔTm at 10 µM [2, 3] [°C] | AC50 (p53 Y220C; AC50) [nM] | Emax (p53 Y220C; Emax) [%] | IC50 (NUGC3 p53 Y220C; NUGC3 cells) [nM] | IC50 (H1299 p53 Y220C; [4]) [nM] | IC50 (H1299 p53 R273H; [5]) [nM] | Kd ([1]; SPR, kinetic KD, p53 Y220C) [nM] | ΔTm at 100 µM ([2]; thermal shift) [°C] | Emax (p53 Y220C; [6]) [%] | AC50 (p53 Y220C) [nM] | IC50 (NUGC3 p53 Y220C; NUGC3 p53 Y220C) [nM] | IC50 (H1299 p53 Y220C; H1299 p53 Y220C) [nM] | IC50 (H1299 p53 R273H; H1299 p53 R273H) [nM] | ΔTm at 10 µM [2, 7] [°C] | Kd ([1]; SPR, p53 Y220C) [nM]
CNC(=O)c1ccc(NCC#Cc2cc3c(N[C@@H]4CCN(C5COC5)C[C@@H]4F)nccn3c2SC(F)(F)F)c(OC)c1 [Example 350] | < 10 | ≥ 10 | < 750 | > 90 | < 750 | < 750 | ≥ 10000 |  |  |  |  |  |  |  |  | 
C[C@@H](O)C#Cc1nc2c(N[C@@H]3CCN(C)C[C@@H]3F)cccn2c1CC(F)(F)F [Example 70, (2R)-4-(8-{[(3S,4R)-3-fluoro-1-methylpiperidin-4-yl]amino}-3-(2,2,2-trifluoroethyl)imidazo[1,2-a]pyridin-2-yl)but-3-yn-2-ol] |  |  |  |  |  |  |  | 10 to 100 | 5 to 10 | < 70 | > 3000 | > 3000 | > 3000 | ≥ 10000 |  | 
COc1cc2c(cc1NCC#Cc1nc3c(N[C@@H]4CCN(C)C[C@@H]4F)cccn3c1SC(F)(F)F)C(=O)NC2 [Example 151] |  |  |  |  |  |  |  | < 10 |  | > 90 | < 750 | < 750 | < 750 | 5000 to 8000 | ≥ 10 | 
CNC(=O)c1ccc(NCC#Cc2nc3c(N[C@H]4CCN(C)C(=O)C4)cccn3c2SC(F)(F)F)c(OC)c1 [Example 168] |  |  |  |  |  |  |  | < 10 | 5 to 10 | > 90 | 750 to 1500 | < 750 | < 750 | ≥ 10000 | ≥ 10 | 
CN1CC[C@@H](Nc2cccn3c(CC(F)(F)F)c(C#CC(C)(C)O)nc23)[C@@H](F)C1 [Example 69, 4-(8-{[(3S,4R)-3-fluoro-1-methylpiperidin-4-yl]amino}-3-(2,2,2-trifluoroethyl)imidazo[1,2-a]pyridin-2-yl)-2-methylbut-3-yn-2-ol] |  |  |  |  |  |  |  | 100 to 1000 | 5 to 10 | < 70 | > 3000 | > 3000 | > 3000 | ≥ 10000 |  | 
CNC(=O)c1ccc(NCC#Cc2nc3c(N[C@@H]4CCN(C)C[C@@H]4F)cccn3c2CC(F)(F)F)c(OC(F)F)c1 [Example 60, 3-(difluoromethoxy)-4-{[3-(8-{[(3S,4R)-3-fluoro-1-methylpiperidin-4-yl]amino}-3-(2,2,2-trifluoroethyl)imidazo[1,2-a]pyridin-2-yl)prop-2-yn-1-yl]amino}-N-methylbenzamide] |  |  |  |  |  |  |  | < 10 | ≥ 10 | 70 to 80 | > 3000 | 1500 to 3000 | 1500 to 3000 | ≥ 10000 |  | 
CCNC(=O)c1ccc(NCC#Cc2nc3c(N[C@@H]4CCN(C)C[C@@H]4F)cccn3c2CC(F)(F)F)c(OC)c1 [Example 47, N-ethyl-4-{[3-(8-{[(3S,4R)-3-fluoro-1-methylpiperidin-4-yl]amino}-3-(2,2,2-trifluoroethyl)imidazo[1,2-a]pyridin-2-yl)prop-2-yn-1-yl]amino}-3-methoxybenzamide] |  |  |  |  |  |  |  | 10 to 100 | ≥ 10 | 70 to 80 | > 3000 | > 3000 | 1500 to 3000 | ≥ 10000 |  | 
CCNC(=O)c1ccc(NCC#Cc2nn3c(N[C@@H]4CCN(C)C[C@@H]4F)cccc3c2SC(F)F)c(OC)c1 [Example 317] |  | ≥ 10 | < 750 | 80 to 90 | < 750 | < 750 | ≥ 10000 |  |  |  |  |  |  |  |  | < 10
CNC(=O)c1ccc(NCC#Cc2nc3c(N[C@@H]4CCn5nccc5C4)cccn3c2SC(F)(F)F)c(OC)c1 [Example 179] |  |  |  |  |  |  |  | 10 to 100 | 5 to 10 | < 70 | 1500 to 3000 | 1500 to 3000 | 1500 to 3000 | ≥ 10000 | 5 to 10 | 
CNC(=O)c1ccc(NCC#Cc2nc3c(N[C@@H]4C[C@H]5CC[C@@H]([C@@H]4F)N5C)cccn3c2SC(F)(F)F)c(OC)c1 [Example 122] |  |  |  |  |  |  |  | < 10 | ≥ 10 | 80 to 90 | < 750 | < 750 | < 750 | 5000 to 8000 | ≥ 10 | 
CNC(=O)c1ccc(OC)c(NCC#Cc2nc3c(N[C@@H]4CCN(CCOC)C[C@@H]4F)cccn3c2SC(F)(F)F)c1 [Example 296] |  | ≥ 10 | < 750 | 80 to 90 | < 750 | < 750 | ≥ 10000 |  |  |  |  |  |  |  |  | < 10
CNC(=O)c1ccc(NCC#Cc2nc3c(N[C@@H]4CCN(C)C[C@@H]4F)cccn3c2SC(F)(F)F)c(OC(F)F)c1 [Example 105, 3-(difluoromethoxy)-4-{[3-(8-{[(3S,4R)-3-fluoro-1-methylpiperidin-4-yl]amino}-3-[(trifluoromethyl)sulfanyl]imidazo[1,2-a]pyridin-2-yl)prop-2-yn-1-yl]amino}-N-methylbenzamide] |  |  |  |  |  |  |  | < 10 | ≥ 10 | 80 to 90 | < 750 | < 750 | < 750 | 8000 to 10000 | ≥ 10 | 
CCNC(=O)c1ccc(NCC#Cc2cc3c(N[C@@H]4CCN(C)C[C@@H]4F)nccn3c2SC(F)(F)F)c(OC)c1 [Example 306] |  | ≥ 10 | < 750 | > 90 | < 750 | < 750 | 5000 to 8000 |  |  |  |  |  |  |  |  | < 10
COc1cc(C(=O)NC2CC2)ccc1NCC#Cc1nc2c(N[C@@H]3CCN(C)C[C@@H]3F)cccn2c1SC(F)(F)F [Example 86, N-cyclopropyl-4-{[3-(8-{[(3S,4R)-3-fluoro-1-methylpiperidin-4-yl]amino}-3-[(trifluoromethyl)sulfanyl]imidazo[1,2-a]pyridin-2-yl)prop-2-yn-1-yl]amino}-3-methoxybenzamide] |  |  |  |  |  |  |  | < 10 | ≥ 10 | 80 to 90 | < 750 | < 750 | < 750 | 5000 to 8000 |  | 
CNC(=O)c1ccc(OC)c(NCC#Cc2nc3c(N[C@@H]4CCNC[C@@H]4F)cccn3c2SC(F)(F)F)c1 [Example 218] |  |  |  |  |  |  |  | < 10 | ≥ 10 | 80 to 90 | < 750 | < 750 | < 750 | ≥ 10000 | ≥ 10 | 
